# Measured values taken from ChEMBL document CHEMBL1201862, “PubChem BioAssay data set” (2004).
#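 Where inhibition never reached the appropriate level, the endpoint shown equals the highest concentration tested. Otherwise, values were interpolated linearly from a five-concentration, 48-hour dose response in 96-well plates. Here, GI50 denotes the concentration required for 50% inhibition of growth.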 The source made the active and inactive calls. Rule as the data show it: active = GI50 up to about 1.1 µM and inactive = higher.
# Columns and labels:
# Experiment in all cases: NCI-60 cell line screen, 48 h
# CCRF-CEM = test system: CCRF-CEM
# M14 = test system: M14
# EKVX = test system: EKVX
# Hs-578T = test system: Hs-578T
# K562 = test system: K562
# MCF7 = test system: MCF7
# SK-OV-3 = test system: SK-OV-3
# OVCAR-5 = test system: OVCAR-5
# IGROV-1 = test system: IGROV-1
# MDA-MB-435 = test system: MDA-MB-435
# BT-549 = test system: BT-549
# T47D = test system: T47D
# SK-MEL-28 = test system: SK-MEL-28
# HL-60 = test system: HL-60
# U-251 = test system: U-251
# OVCAR-8 = test system: OVCAR-8
# SNB-75 = test system: SNB-75
# ACHN = test system: ACHN
# HCT-116 = test system: HCT-116
# MOLT-4 = test system: MOLT-4
# SF-268 = test system: SF-268
# SK-MEL-5 = test system: SK-MEL-5
# 786-0 = test system: 786-0
# SNB-19 = test system: SNB-19
# UACC-257 = test system: UACC-257
# NCI-H226 = test system: NCI-H226
# A498 = test system: A498
# SF-539 = test system: SF-539
# TK-10 = test system: TK-10
# RPMI-8226 = test system: RPMI-8226
# SN12C = test system: SN12C
# DU-145 = test system: DU-145
# KM12 = test system: KM12
# COLO 205 = test system: COLO 205
# OVCAR-3 = test system: OVCAR-3
# HCT-15 = test system: HCT-15
# Malme-3M = test system: Malme-3M
# A549 = test system: A549
# NCI/ADR-RES = test system: NCI/ADR-RES
# LOX IMVI = test system: LOX IMVI
# NCI-H460 = test system: NCI-H460
# SF-295 = test system: SF-295
# HT-29 = test system: HT-29
# SW-620 = test system: SW-620
# UO-31 = test system: UO-31
# MDA-MB-231 = test system: MDA-MB-231
# SR = test system: SR
# CAKI-1 = test system: CAKI-1
# PC-3 = test system: PC-3
# HOP-62 = test system: HOP-62
# UACC-62 = test system: UACC-62
# NCI-H23 = test system: NCI-H23
# SK-MEL-2 = test system: SK-MEL-2
# HCC 2998 = test system: HCC 2998
# NCI-H522 = test system: NCI-H522
# RXF 393 = test system: RXF 393
# OVCAR-4 = test system: OVCAR-4
# HOP-92 = test system: HOP-92
# MDA-N = test system: MDA-N
compound,measurement,setting,value
S=c1sc2c(s1)SCc1cccc(n1)CSc1sc(=S)sc1SCc1cccc(n1)CS2,GI50,CCRF-CEM,> 100 µM (inactive)
same,GI50,M14,> 100 µM (inactive)
same,GI50,EKVX,> 100 µM (inactive)
same,GI50,Hs-578T,> 100 µM (inactive)
same,GI50,K562,> 100 µM (inactive)
same,GI50,MCF7,> 10 µM (inactive)
same,GI50,SK-OV-3,> 100 µM (inactive)
same,GI50,OVCAR-5,> 100 µM (inactive)
same,GI50,IGROV-1,> 100 µM (inactive)
same,GI50,MDA-MB-435,> 100 µM (inactive)
same,GI50,BT-549,> 100 µM (inactive)
same,GI50,T47D,> 100 µM (inactive)
same,GI50,SK-MEL-28,> 100 µM (inactive)
same,GI50,HL-60,> 100 µM (inactive)
same,GI50,U-251,> 100 µM (inactive)
same,GI50,OVCAR-8,> 100 µM (inactive)
same,GI50,SNB-75,> 100 µM (inactive)
same,GI50,ACHN,> 100 µM (inactive)
same,GI50,HCT-116,> 100 µM (inactive)
same,GI50,MOLT-4,> 100 µM (inactive)
same,GI50,SF-268,> 100 µM (inactive)
same,GI50,SK-MEL-5,> 100 µM (inactive)
same,GI50,786-0,> 100 µM (inactive)
same,GI50,SNB-19,> 100 µM (inactive)
same,GI50,UACC-257,> 100 µM (inactive)
same,GI50,NCI-H226,> 100 µM (inactive)
same,GI50,A498,> 100 µM (inactive)
same,GI50,SF-539,> 100 µM (inactive)
same,GI50,TK-10,> 100 µM (inactive)
same,GI50,RPMI-8226,> 100 µM (inactive)
same,GI50,SN12C,> 100 µM (inactive)
same,GI50,DU-145,> 100 µM (inactive)
same,GI50,KM12,> 100 µM (inactive)
same,GI50,COLO 205,> 100 µM (inactive)
same,GI50,OVCAR-3,> 100 µM (inactive)
same,GI50,HCT-15,> 100 µM
same,GI50,Malme-3M,> 100 µM (inactive)
same,GI50,A549,> 100 µM (inactive)
same,GI50,NCI/ADR-RES,> 100 µM (inactive)
same,GI50,LOX IMVI,> 100 µM (inactive)
same,GI50,NCI-H460,> 100 µM (inactive)
same,GI50,SF-295,> 100 µM (inactive)
same,GI50,HT-29,> 100 µM (inactive)
same,GI50,SW-620,> 100 µM (inactive)
same,GI50,UO-31,> 100 µM (inactive)
same,GI50,MDA-MB-231,> 100 µM (inactive)
same,GI50,SR,> 100 µM (inactive)
same,GI50,CAKI-1,> 100 µM (inactive)
same,GI50,PC-3,> 100 µM (inactive)
same,GI50,HOP-62,> 100 µM (inactive)
same,GI50,UACC-62,> 100 µM (inactive)
same,GI50,NCI-H23,> 100 µM (inactive)
same,GI50,SK-MEL-2,> 100 µM (inactive)
same,GI50,HCC 2998,> 100 µM (inactive)
same,GI50,NCI-H522,> 100 µM (inactive)
NC(Cc1ccc(OCc2ccccc2)cn1)C(=O)OCc1ccccc1 (configuration not stated),GI50,CCRF-CEM,> 100 µM (inactive)
same,GI50,EKVX,> 100 µM (inactive)
same,GI50,Hs-578T,> 100 µM (inactive)
same,GI50,K562,> 100 µM (inactive)
same,GI50,MCF7,> 100 µM (inactive)
same,GI50,OVCAR-5,> 100 µM (inactive)
same,GI50,IGROV-1,> 100 µM (inactive)
same,GI50,MDA-MB-435,> 100 µM (inactive)
same,GI50,BT-549,> 100 µM (inactive)
same,GI50,SK-MEL-28,> 100 µM (inactive)
same,GI50,HL-60,> 100 µM (inactive)
same,GI50,U-251,> 100 µM (inactive)
same,GI50,OVCAR-8,> 100 µM (inactive)
same,GI50,ACHN,> 100 µM (inactive)
same,GI50,HCT-116,> 100 µM (inactive)
same,GI50,SK-MEL-5,> 100 µM (inactive)
same,GI50,786-0,> 100 µM (inactive)
same,GI50,SNB-19,> 100 µM (inactive)
same,GI50,UACC-257,> 100 µM (inactive)
same,GI50,NCI-H226,> 100 µM (inactive)
same,GI50,A498,> 100 µM (inactive)
same,GI50,SF-539,> 100 µM (inactive)
same,GI50,RXF 393,> 100 µM (inactive)
same,GI50,TK-10,> 100 µM (inactive)
same,GI50,RPMI-8226,> 100 µM (inactive)
same,GI50,SN12C,> 100 µM (inactive)
same,GI50,DU-145,> 100 µM (inactive)
same,GI50,KM12,> 100 µM (inactive)
same,GI50,COLO 205,> 100 µM (inactive)
same,GI50,OVCAR-4,> 100 µM (inactive)
same,GI50,OVCAR-3,> 100 µM (inactive)
same,GI50,HCT-15,> 100 µM
same,GI50,Malme-3M,> 100 µM (inactive)
same,GI50,HOP-92,> 100 µM (inactive)
same,GI50,A549,> 100 µM (inactive)
same,GI50,NCI/ADR-RES,> 100 µM (inactive)
same,GI50,LOX IMVI,> 100 µM (inactive)
same,GI50,NCI-H460,> 100 µM (inactive)
same,GI50,SF-295,> 100 µM (inactive)
same,GI50,HT-29,> 100 µM (inactive)
same,GI50,SW-620,> 100 µM (inactive)
same,GI50,UO-31,> 100 µM (inactive)
same,GI50,MDA-MB-231,> 100 µM (inactive)
same,GI50,SR,> 100 µM (inactive)
same,GI50,CAKI-1,> 100 µM (inactive)
same,GI50,PC-3,> 100 µM (inactive)
same,GI50,MDA-N,> 100 µM (inactive)
same,GI50,HOP-62,> 100 µM (inactive)
same,GI50,NCI-H23,> 100 µM (inactive)
same,GI50,HCC 2998,52.4 µM (inactive)
same,GI50,NCI-H522,> 100 µM (inactive)
O=C(CP(c1ccccc1)c1ccccc1)c1cccc(C(=O)CP(c2ccccc2)c2ccccc2)c1,GI50,CCRF-CEM,6.76 µM (inactive)
same,GI50,M14,52.6 µM (inactive)
same,GI50,EKVX,56.9 µM (inactive)
same,GI50,Hs-578T,62.7 µM (inactive)
same,GI50,K562,8.02 µM (inactive)
same,GI50,MCF7,17.9 µM (inactive)
same,GI50,SK-OV-3,> 100 µM (inactive)
same,GI50,OVCAR-5,> 100 µM (inactive)
same,GI50,IGROV-1,> 100 µM (inactive)
same,GI50,MDA-MB-435,45.7 µM (inactive)
same,GI50,T47D,14.2 µM (inactive)
same,GI50,SK-MEL-28,92 µM (inactive)
same,GI50,HL-60,16.2 µM (inactive)
same,GI50,U-251,58.5 µM (inactive)
same,GI50,OVCAR-8,89.7 µM (inactive)
same,GI50,SNB-75,55.6 µM (inactive)
same,GI50,ACHN,84.1 µM (inactive)
same,GI50,HCT-116,36.8 µM (inactive)
same,GI50,MOLT-4,6.75 µM (inactive)
same,GI50,SF-268,80.9 µM (inactive)
same,GI50,SK-MEL-5,23.4 µM (inactive)
same,GI50,786-0,85.7 µM (inactive)
same,GI50,SNB-19,43.8 µM (inactive)
same,GI50,UACC-257,32.1 µM (inactive)
same,GI50,NCI-H226,66.4 µM (inactive)
same,GI50,SF-539,> 100 µM (inactive)
same,GI50,RXF 393,61.7 µM (inactive)
same,GI50,TK-10,> 100 µM (inactive)
same,GI50,RPMI-8226,12.6 µM (inactive)
same,GI50,SN12C,56.8 µM (inactive)
same,GI50,DU-145,55.8 µM (inactive)
same,GI50,KM12,26.1 µM (inactive)
same,GI50,COLO 205,12.1 µM (inactive)
same,GI50,OVCAR-4,26.1 µM (inactive)
same,GI50,HCT-15,49.3 µM
same,GI50,A549,15.6 µM (inactive)
same,GI50,NCI/ADR-RES,> 100 µM (inactive)
same,GI50,NCI-H460,19.7 µM (inactive)
same,GI50,SF-295,26.1 µM (inactive)
same,GI50,HT-29,8.2 µM (inactive)
same,GI50,SW-620,> 100 µM (inactive)
same,GI50,UO-31,12.5 µM (inactive)
same,GI50,MDA-MB-231,68.9 µM (inactive)
same,GI50,SR,15.7 µM (inactive)
same,GI50,CAKI-1,86.3 µM (inactive)
same,GI50,PC-3,37.2 µM (inactive)
same,GI50,MDA-N,70.3 µM (inactive)
same,GI50,HOP-62,96.6 µM (inactive)
same,GI50,UACC-62,78.3 µM (inactive)
same,GI50,SK-MEL-2,> 100 µM (inactive)
same,GI50,HCC 2998,74.1 µM (inactive)
